In ChEMBL document CHEMBL1151397, “The Alkaloids of Stephania glabra” (1982):

Tested on: Ileum
Assay: Spasmolytic activity in guinea pig ileum assessed as blockade of muscle contractions at 25 ug
Assay type: functional, Cavia porcellus

COc1cc2c3c(c1OC)C1(C=CC(=O)C=C1)C[C@H]3N(C)CC2.Cl [PRONUCIFERINE HYDROCHLORIDE]
Activity: 75%
